Laboratory results taken from patent publication US9382188B2, “Aromatic ring compound” (TAKEDA PHARMACEUTICAL COMPANY LIMITED, priority 2012, dated 2016).

The compounds below were run against T1, human GPR40 (Homo sapiens, UniProt O14842) (assay: Evaluation of human GPR40 agonist activity with increase in intracellular Ca2+ concentration as an index (FLIPR Tetra)). Details: test compound 1 μM; CHO(dhfr-) cells stably expressing human GPR40; 100% = activity of 1 μM WO2009/048527 Example 99.2, 0% = DMSO.
T1 construct: expressed in transfected cells
Assay type: cell-based
Experimental: Evaluation of human GPR40 agonist activity with increase in intracellular Ca^2+ concentration as an index
CHO(dhfr-) cells that stably expressed human GPR40 were suspended in MEMα (Nikken Bio Medical Laboratory) containing 10% dialysis serum (GEMINI BIO-PRODUCTS), 10 mM HEPES (Invitrogen), 100 U/mL penicillin, 100 μg/mL streptomycin (Invitrogen), and plated on a 384 well black/clear cell culture plate at 10,000 cells/well. After culture overnight in a CO2 incubator at 37° C., the culture supernatant was removed, and a loading buffer [dye attached to Calcium 5 Assay Kit (Molecular Devices) was dissolved in an assay buffer (20 mM HEPES, 0.2% fatty acid-free BSA (Sigma-Aldrich), 2.5 mM probenecid (DOJINDO)-containing HBSS (Invitrogen)) added with 0.025% Cremophor EL (DOJINDO)] was added at 37.5 μL/well. After incubation in a CO2 incubator at 37° C. for 1 hr, the cells were stood at room temperature for 15 min, an assay buffer containing the test compound at a final concentration of 1 μM was added at 12.5 μL/well in FLIPR Tetra (Molecular Devices), and the fluorescence amount was successively measured. Human GPR40 agonist activity calculated using an increase in the intracellular Ca^2+ concentration as an index, wherein the activity of 1 μM of the compound described in WO 2009/048527 (WO2009/048527 Example 99.2) was 100%, and the activity when DMSO was added instead of the test compound was 0%.

T1 sequence (O14842 whole entry): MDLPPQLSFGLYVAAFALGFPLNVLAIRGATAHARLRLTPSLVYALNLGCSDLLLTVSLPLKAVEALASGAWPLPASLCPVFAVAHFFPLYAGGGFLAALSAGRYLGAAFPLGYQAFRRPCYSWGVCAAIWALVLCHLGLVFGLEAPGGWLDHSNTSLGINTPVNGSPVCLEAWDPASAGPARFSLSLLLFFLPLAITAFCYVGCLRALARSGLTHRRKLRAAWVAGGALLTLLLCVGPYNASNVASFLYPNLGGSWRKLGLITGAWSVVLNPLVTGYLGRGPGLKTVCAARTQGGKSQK

**Q.** With `CC(C)(C)Cc1cc(OCc2cccc(C(CC(=O)O)C3CC3)c2)cnc1-c1cc(OC2CCCCO2)ccc1F` (stereo not shown) [Example 44, 3-cyclopropyl-3-(3-(((5-(2,2-dimethylpropyl)-6-(2-fluoro-5-(tetrahydro-2H-pyran-2-yloxy)phenyl)pyridin-3-yl)oxy)methyl)phenyl)propanoic acid] as the compound, how does the activation at 1 µM read?
**A.** 3%

**Q.** `CC(C)(C)Cc1cc(OCc2cccc(C(CC(=O)O)C3CC3)c2)cnc1-c1ccccc1` (stereo not shown) [Example 45, 3-cyclopropyl-3-(3-(((5-(2,2-dimethylpropyl)-6-phenylpyridin-3-yl)oxy)methyl)phenyl)propanoic acid] was tested. Which activation at 1 µM did it give?
**A.** 55%

**Q.** How did the activation at 1 µM turn out when `COc1cccc(-c2ncc(OCc3cccc(C(CC(=O)O)C4CC4)c3)cc2CC(C)(C)C)c1` (stereo not shown) [Example 46, 3-cyclopropyl-3-(3-(((5-(2,2-dimethylpropyl)-6-(3-methoxyphenyl)pyridin-3-yl)oxy)methyl)phenyl)propanoic acid] was run?
**A.** 117%

**Q.** `Cc1cccc(-c2ncc(OCc3cccc(C(CC(=O)O)C4CC4)c3)cc2CC(C)(C)C)c1` (stereo not shown) [Example 47, 3-cyclopropyl-3-(3-(((5-(2,2-dimethylpropyl)-6-(3-methylphenyl)pyridin-3-yl)oxy)methyl)phenyl)propanoic acid] was tested. Which activation at 1 µM did it give?
**A.** 92%

**Q.** Which activation at 1 µM does the source give for `COc1ccc(-c2ncc(OCc3cccc(C(CC(=O)O)C4CC4)c3)cc2CC(C)(C)C)cc1` (stereo not shown) [Example 48, 3-cyclopropyl-3-(3-(((5-(2,2-dimethylpropyl)-6-(4-methoxyphenyl)pyridin-3-yl)oxy)methyl)phenyl)propanoic acid] here?
**A.** -1%

**Q.** Which activation at 1 µM does the source give for `CC(C)(C)Cc1cc(OCc2cccc(C(CC(=O)O)C3CC3)c2)cnc1-c1cccc(OC(F)(F)F)c1` (stereo not shown) [Example 49, 3-cyclopropyl-3-(3-(((5-(2,2-dimethylpropyl)-6-(3-(trifluoromethoxy)phenyl)pyridin-3-yl)oxy)methyl)phenyl)propanoic acid] here?
**A.** -23%

**Q.** How did the activation at 1 µM turn out when `COc1ccccc1-c1ncc(OCc2cccc(C(CC(=O)O)C3CC3)c2)cc1CC(C)(C)C` (stereo not shown) [Example 50, 3-cyclopropyl-3-(3-(((5-(2,2-dimethylpropyl)-6-(2-methoxyphenyl)pyridin-3-yl)oxy)methyl)phenyl)propanoic acid] was run?
**A.** 9%

**Q.** How did the activation at 1 µM turn out when `CC(C)(C)Cc1cc(OCc2cccc(C(CC(=O)O)C3CC3)c2)cnc1-c1cccc(C(=O)O)c1` (stereo not shown) [Example 51, 3-(5-((3-(2-carboxy-1-cyclopropylethyl)benzyl)oxy)-3-(2,2-dimethylpropyl)pyridin-2-yl)benzoic acid] was run?
**A.** 0%

**Q.** `CC(C)(C)Cc1cc(OCc2cccc(C(CC(=O)O)C3CC3)c2)cnc1-c1cccc(C(F)(F)F)c1` (stereo not shown) [Example 52, 3-cyclopropyl-3-(3-(((5-(2,2-dimethylpropyl)-6-(3-(trifluoromethyl)phenyl)pyridin-3-yl)oxy)methyl)phenyl)propanoic acid] was tested. Which activation at 1 µM did it give?
**A.** 14%

**Q.** How did the activation at 1 µM turn out when `COc1ccc(OC)c(-c2ncc(OCc3cccc(C(CC(=O)O)C4CC4)c3)cc2CC(C)(C)C)c1` (stereo not shown) [Example 53, 3-cyclopropyl-3-(3-(((6-(2,5-dimethoxyphenyl)-5-(2,2-dimethylpropyl)pyridin-3-yl)oxy)methyl)phenyl)propanoic acid] was run?
**A.** 99%

**Q.** With `COc1ccc(-c2ncc(OCc3cccc(C(CC(=O)O)C4CC4)c3)cc2CC(C)(C)C)cc1OC` (stereo not shown) [Example 54, 3-cyclopropyl-3-(3-(((6-(3,4-dimethoxyphenyl)-5-(2,2-dimethylpropyl)pyridin-3-yl)oxy)methyl)phenyl)propanoic acid] as the compound, how does the activation at 1 µM read?
**A.** 3%

**Q.** How did the activation at 1 µM turn out when `CC(C)(C)Cc1cc(OCc2cccc(C(CC(=O)O)C3CC3)c2)cnc1-c1cccc(O)c1` (stereo not shown) [Example 55, 3-cyclopropyl-3-(3-(((5-(2,2-dimethylpropyl)-6-(3-hydroxyphenyl)pyridin-3-yl)oxy)methyl)phenyl)propanoic acid] was run?
**A.** 126%

**Q.** With `COc1cc(OC)cc(-c2ncc(OCc3cccc(C(CC(=O)O)C4CC4)c3)cc2CC(C)(C)C)c1` (stereo not shown) [Example 56, 3-cyclopropyl-3-(3-(((6-(3,5-dimethoxyphenyl)-5-(2,2-dimethylpropyl)pyridin-3-yl)oxy)methyl)phenyl)propanoic acid] as the compound, how does the activation at 1 µM read?
**A.** 31%

**Q.** For `COc1cc(-c2ncc(OCc3cccc(C(CC(=O)O)C4CC4)c3)cc2CC(C)(C)C)c(F)cn1` (stereo not shown) [Example 57, 3-cyclopropyl-3-(3-(((3-(2,2-dimethylpropyl)-5′-fluoro-2′-methoxy-2,4′-bipyridin-5-yl)oxy)methyl)phenyl)propanoic acid], which activation at 1 µM is on record?
**A.** 106%

**Q.** For `COc1ccc(C)c(-c2ncc(OCc3cccc(C(CC(=O)O)C4CC4)c3)cc2CC(C)(C)C)c1` (stereo not shown) [Example 58, 3-cyclopropyl-3-(3-(((5-(2,2-dimethylpropyl)-6-(5-methoxy-2-methylphenyl)pyridin-3-yl)oxy)methyl)phenyl)propanoic acid], which activation at 1 µM is on record?
**A.** 114%

**Q.** Which activation at 1 µM does the source give for `COc1ccc(Cl)c(-c2ncc(OCc3cccc(C(CC(=O)O)C4CC4)c3)cc2CC(C)(C)C)c1` (stereo not shown) [Example 59, 3-(3-(((6-(2-chloro-5-methoxyphenyl)-5-(2,2-dimethylpropyl)pyridin-3-yl)oxy)methyl)phenyl)-3-cyclopropylpropanoic acid] here?
**A.** 115%

**Q.** How did the activation at 1 µM turn out when `CC(C)(C)Cc1cc(OCc2cccc(C(CC(=O)O)C3CC3)c2)cnc1-c1cc(C#N)ccc1F` (stereo not shown) [Example 60, 3-(3-(((6-(5-cyano-2-fluorophenyl)-5-(2,2-dimethylpropyl)pyridin-3-yl)oxy)methyl)phenyl)-3-cyclopropylpropanoic acid] was run?
**A.** 56%

**Q.** How did the activation at 1 µM turn out when `CC(C)(C)Cc1cc(OCc2cccc(C(CC(=O)O)C3CC3)c2)cnc1-c1ccc(OC(F)(F)F)cc1` (stereo not shown) [Example 61, 3-cyclopropyl-3-(3-(((5-(2,2-dimethylpropyl)-6-(4-(trifluoromethoxy)phenyl)pyridin-3-yl)oxy)methyl)phenyl)propanoic acid] was run?
**A.** 8%

**Q.** For `CC(C)(C)Cc1cc(OCc2cccc(C(CC(=O)O)C3CC3)c2)cnc1-c1cccc(NS(C)(=O)=O)c1` (stereo not shown) [Example 62, 3-cyclopropyl-3-(3-(((5-(2,2-dimethylpropyl)-6-(3-((methylsulfonyl)amino)phenyl)pyridin-3-yl)oxy)methyl)phenyl)propanoic acid], which activation at 1 µM is on record?
**A.** 4%

**Q.** With `Cc1cncc(-c2ncc(OCc3cccc(C(CC(=O)O)C4CC4)c3)cc2CC(C)(C)C)c1` (stereo not shown) [Example 63, 3-cyclopropyl-3-(3-(((3-(2,2-dimethylpropyl)-5′-methyl-2,3′-bipyridin-5-yl)oxy)methyl)phenyl)propanoic acid] as the compound, how does the activation at 1 µM read?
**A.** 21%

**Q.** For `COc1cncc(-c2ncc(OCc3cccc(C(CC(=O)O)C4CC4)c3)cc2CC(C)(C)C)c1` (stereo not shown) [Example 66, 3-cyclopropyl-3-(3-(((3-(2,2-dimethylpropyl)-5′-methoxy-2,3′-bipyridin-5-yl)oxy)methyl)phenyl)propanoic acid], which activation at 1 µM is on record?
**A.** 57%

**Q.** `CC(C)(C)Cc1cc(OCc2cccc(C(CC(=O)O)C3CC3)c2)cnc1-c1cccc(S(=O)(=O)N2CCOCC2)c1` (stereo not shown) [Example 67, 3-cyclopropyl-3-(3-(((5-(2,2-dimethylpropyl)-6-(3-(morpholin-4-ylsulfonyl)phenyl)pyridin-3-yl)oxy)methyl)phenyl)propanoic acid] was tested. Which activation at 1 µM did it give?
**A.** 8%

**Q.** For `CCOc1ccc(F)c(-c2ncc(OCc3cccc(C(CC(=O)O)C4CC4)c3)cc2CC(C)(C)C)c1` (stereo not shown) [Example 68, 3-cyclopropyl-3-(3-(((5-(2,2-dimethylpropyl)-6-(5-ethoxy-2-fluorophenyl)pyridin-3-yl)oxy)methyl)phenyl)propanoic acid], which activation at 1 µM is on record?
**A.** 116%

**Q.** How did the activation at 1 µM turn out when `CC(C)Oc1ccc(F)c(-c2ncc(OCc3cccc(C(CC(=O)O)C4CC4)c3)cc2CC(C)(C)C)c1` (stereo not shown) [Example 69, 3-cyclopropyl-3-(3-(((5-(2,2-dimethylpropyl)-6-(2-fluoro-5-isopropoxyphenyl)pyridin-3-yl)oxy)methyl)phenyl)propanoic acid] was run?
**A.** 61%

**Q.** Which activation at 1 µM does the source give for `CC(C)(C)Cc1cc(OCc2cccc(C(CC(=O)O)C3CC3)c2)cnc1-c1cc(OCC(F)(F)F)ccc1F` (stereo not shown) [Example 70, 3-cyclopropyl-3-(3-(((5-(2,2-dimethylpropyl)-6-(2-fluoro-5-(2,2,2-trifluoroethoxy)phenyl)pyridin-3-yl)oxy)methyl)phenyl)propanoic acid] here?
**A.** -8%

**Q.** `CCCCCOc1ccc(F)c(-c2ncc(OCc3cccc(C(CC(=O)O)C4CC4)c3)cc2CC(C)(C)C)c1` (stereo not shown) [Example 71, 3-cyclopropyl-3-(3-(((5-(2,2-dimethylpropyl)-6-(2-fluoro-5-(pentyloxy)phenyl)pyridin-3-yl)oxy)methyl)phenyl)propanoic acid] was tested. Which activation at 1 µM did it give?
**A.** 1%

**Q.** Which activation at 1 µM does the source give for `COCCCOc1ccc(F)c(-c2ncc(OCc3cccc(C(CC(=O)O)C4CC4)c3)cc2CC(C)(C)C)c1` (stereo not shown) [Example 72, 3-cyclopropyl-3-(3-(((5-(2,2-dimethylpropyl)-6-(2-fluoro-5-(3-methoxypropoxy)phenyl)pyridin-3-yl)oxy)methyl)phenyl)propanoic acid] here?
**A.** 1%

**Q.** `CC(C)(C)Cc1cc(OCc2cccc(C(CC(=O)O)C3CC3)c2)cnc1-c1cc(O)ccc1F` (stereo not shown) [Example 73, 3-cyclopropyl-3-(3-(((5-(2,2-dimethylpropyl)-6-(2-fluoro-5-hydroxyphenyl)pyridin-3-yl)oxy)methyl)phenyl)propanoic acid] was tested. Which activation at 1 µM did it give?
**A.** 123%
